Results taken from patent publication US8455537B2, “Estrogen receptor modulators and uses thereof” (University of Medicine and Dentistry of New Jersey, priority 2006, dated 2013).

Key:
[1] = target: T1, estrogen receptor alpha (ERα) (Homo sapiens, UniProt P03372); assay: Gel filtration displacement assay, competitive binding with 3H-estradiol; settings: test compound 10 μM; 25 nM 3H-estradiol; 10 ng purified full-length ERα; no cold ligand = 100%; lower = stronger binding
T1 construct: 10 ng of purified full-length ERα (Active Motif, Carlsbad, Calif.); purchased Active Motif, Carlsbad, Calif
T1 sequence (P03372 1-595): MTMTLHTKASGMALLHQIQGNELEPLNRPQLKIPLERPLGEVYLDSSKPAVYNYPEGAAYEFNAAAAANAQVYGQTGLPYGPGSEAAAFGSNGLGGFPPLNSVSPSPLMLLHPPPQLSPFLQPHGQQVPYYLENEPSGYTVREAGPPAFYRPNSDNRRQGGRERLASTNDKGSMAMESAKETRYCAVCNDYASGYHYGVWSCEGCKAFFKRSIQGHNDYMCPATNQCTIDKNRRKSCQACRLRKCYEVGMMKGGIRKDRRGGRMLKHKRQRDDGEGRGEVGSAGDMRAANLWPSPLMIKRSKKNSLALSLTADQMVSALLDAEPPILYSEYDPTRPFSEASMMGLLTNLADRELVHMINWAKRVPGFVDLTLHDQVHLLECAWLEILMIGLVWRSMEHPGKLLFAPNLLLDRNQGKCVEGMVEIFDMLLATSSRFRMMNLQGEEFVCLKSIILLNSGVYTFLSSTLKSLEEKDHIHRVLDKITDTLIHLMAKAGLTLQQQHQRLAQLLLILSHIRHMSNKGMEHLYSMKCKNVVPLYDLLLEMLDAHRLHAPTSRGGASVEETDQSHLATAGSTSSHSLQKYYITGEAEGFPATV
Protocol: A gel filtration displacement assay for estrogen receptor alpha (ERα) was employed to assess competitive binding by ER antagonists among the test compounds in 10 μM. ER binding assays were conducted in duplicate in 50 mM Tris-HCl, pH7.5, 1 mM EDTA, 20% Glycerol and 1 mM DTT buffer. Radioligands that were used include [6, 7-^3H] estradiol (specific activity 44 Ci/mmol, Amersham Biosciences).
Following 1-hour incubation, assays were terminated by filtration through Whatman GF/B filters. […] Counts were normalized to the negative controls (no cold ligand) as the percentage of bound radiolabeled-estradiol remaining after separating bound radioligand from free radioligand. The negative controls were taken as 100% bound radioligand remaining. […] Results are reported as the average values of three independent experiments in duplicate. Error bars represent standard deviation of the three determinations (FIG. 2).

ERα = target: T2, ERα (Homo sapiens, UniProt P03372); assay: NR peptide ERα ELISA kit, percentage of ER activation; assay type: biochemical; settings: 25 μM sample; normalized to vehicle control (DMSO) = 100%; over 100% agonist, below 100% antagonist; MCF-7 nuclear extract as ER source
T2 construct: presence of both ER and PR in the MCF-7 nuclear extract; (kit); host or cells: MCF-7 nuclear extract
T2 sequence (P03372 1-595): T1 sequence (P03372 1-595)
Excerpt: Relative units of light intensity for each test compound were normalized to the vehicle control (DMSO) and then expressed in percentage of ER activation. […] The data reported here represent results of three independent determinations in duplicate. Error bars represent the standard deviation of the three determinations.

percentage of bound radiolabeled-estradiol remaining [1] [%]	percentage of ER activation (ERα) [%]	Structure (SMILES)
89.8	69	O=C1c2ccccc2C(=O)N1CN(C(=O)c1ccccc1)c1ccc(O)cc1 [Compound B]
> 100	51.7	CC#C[C@]1(O)CC[C@H]2[C@@H]3CCC4=CC(=O)CCC4=C3[C@@H](c3ccc(N(C)C)cc3)C[C@@]21C [mifepristone, reference compound]
65.9	53.1	CCC(=O)C1=C(O)CCC(c2cccc(Oc3ccccc3)c2)C1=O (stereo not shown) [Compound A]

Structure (SMILES)	percentage of bound radiolabeled-estradiol remaining [1] [%]	percentage of ER activation (ERα) [%]
C[C@]12CC[C@@H]3c4ccc(O)c(O)c4CC[C@H]3[C@@H]1CC[C@@H]2O [4-hydroxy estradiol]		196.3
